Data as given in ChEMBL document CHEMBL3885861, “Open TG-GATES”.

Species on record: Rattus norvegicus
Assay: Open TG-GATES - Regimen: Single
Type: toxicity, organism-based, Sprague-Dawley
Set-up: regimen Single, gender Male, age 6 weeks
Conditions: in vivo, po, 0 mg/kg, route gavage, dose level Control; for APTT / Bas / Eos / Fbg / Hb / Ht / Lym / MCH / MCHC / MCV / Mono / Neu / PT / Plat / RBC / Ret / WBC: tissue Blood; for KIDNEY_L / KIDNEY_R / KIDNEY_TOTAL: tissue Kidney; for LIVER: tissue Liver; for A/G / ALP / ALT / AST / BUN / CRE / Ca / Cl / DBIL / GLC / IP / K / LDH / Na / PL / RALB / TBIL / TC / TG / TP / gamma-GTP: tissue Plasma

## COc1ccc(Cc2nccc3cc(OC)c(OC)cc23)cc1OC [PAPAVERINE]
3 h
  TERMINAL_BW: 223.5 g
  APTT: 21.8 s
  Bas: 0%
  Eos: 0.8%
  Fbg: 332.6 mg/dL
  Hb: 13.5 g/dL
  Ht: 40.3%
  Lym: 80.6%
  MCH: 21.3 pg
  MCHC: 33.5%
  MCV: 63.4 fL
  Mono: 2.2%
  Neu: 15%
  PT: 15.8 s
  Plat: 108.7 x10_4/uL
  RBC: 637.4 x10_4/ul
  Ret: 7.9%
  WBC: 110.9 x10_2/uL
  KIDNEY_L: 1 g
  KIDNEY_R: 1 g
  KIDNEY_TOTAL: 2 g
  LIVER: 10.2 g
  A/G: 1.2
  ALP: 1651.2 IU/L
  ALT: 42.8 IU/L
  AST: 73 IU/L
  BUN: 14 mg/dL
  CRE: 0.1 mg/dL
  Ca: 11 mg/dL
  Cl: 108.6 meq/L
  DBIL: 0 mg/dL
  GLC: 193.6 mg/dL
  IP: 7.8 mg/dL
  K: 4 meq/L
  LDH: 147.2 IU/L
  Na: 141.6 meq/L
  PL: 140.2 mg/dL
  RALB: 3 g/dL
  TBIL: 0.01 mg/dL
  TC: 82.6 mg/dL
  TG: 55 mg/dL
  TP: 5.5 g/dL
  gamma-GTP: 2 IU/L
6 h
  TERMINAL_BW: 214 g
  APTT: 23 s
  Bas: 0%
  Eos: 0.6%
  Fbg: 325.8 mg/dL
  Hb: 13.8 g/dL
  Ht: 41.4%
  Lym: 82.8%
  MCH: 20.8 pg
  MCHC: 33.3%
  MCV: 62.5 fL
  Mono: 2.2%
  Neu: 13.4%
  PT: 15.9 s
  Plat: 116.4 x10_4/uL
  RBC: 664 x10_4/ul
  Ret: 7.4%
  WBC: 118.9 x10_2/uL
  KIDNEY_L: 0.9 g
  KIDNEY_R: 0.9 g
  KIDNEY_TOTAL: 1.8 g
  LIVER: 9.4 g
  A/G: 1.2
  ALP: 1310.2 IU/L
  ALT: 38.4 IU/L
  AST: 74.4 IU/L
  BUN: 10 mg/dL
  CRE: 0.1 mg/dL
  Ca: 11 mg/dL
  Cl: 106.2 meq/L
  DBIL: 0.002 mg/dL
  GLC: 180.6 mg/dL
  IP: 8.8 mg/dL
  K: 4.3 meq/L
  LDH: 159.6 IU/L
  Na: 140.8 meq/L
  PL: 131.6 mg/dL
  RALB: 2.9 g/dL
  TBIL: 0.01 mg/dL
  TC: 79.2 mg/dL
  TG: 47.6 mg/dL
  TP: 5.3 g/dL
  gamma-GTP: 2 IU/L
9 h
  TERMINAL_BW: 213.9 g
  APTT: 22.9 s
  Bas: 0%
  Eos: 1%
  Fbg: 312.8 mg/dL
  Hb: 13.1 g/dL
  Ht: 39.9%
  Lym: 81.2%
  MCH: 20.3 pg
  MCHC: 33%
  MCV: 61.6 fL
  Mono: 2.4%
  Neu: 14.4%
  PT: 15.6 s
  Plat: 107.7 x10_4/uL
  RBC: 647.6 x10_4/ul
  Ret: 7.9%
  WBC: 110.4 x10_2/uL
  KIDNEY_L: 0.9 g
  KIDNEY_R: 0.9 g
  KIDNEY_TOTAL: 1.9 g
  LIVER: 9.1 g
  A/G: 1.3
  ALP: 1489.8 IU/L
  ALT: 41.2 IU/L
  AST: 69.4 IU/L
  BUN: 11.2 mg/dL
  CRE: 0.1 mg/dL
  Ca: 10.9 mg/dL
  Cl: 105.8 meq/L
  DBIL: 0 mg/dL
  GLC: 190.8 mg/dL
  IP: 9.1 mg/dL
  K: 4.2 meq/L
  LDH: 169 IU/L
  Na: 140.6 meq/L
  PL: 134.6 mg/dL
  RALB: 3 g/dL
  TBIL: 0.016 mg/dL
  TC: 78.4 mg/dL
  TG: 75 mg/dL
  TP: 5.3 g/dL
  gamma-GTP: 1.6 IU/L
24 h
  TERMINAL_BW: 237.4 g
  APTT: 21.6 s
  Bas: 0%
  Eos: 1%
  Fbg: 315.8 mg/dL
  Hb: 13.5 g/dL
  Ht: 40%
  Lym: 81%
  MCH: 21 pg
  MCHC: 33.6%
  MCV: 62.6 fL
  Mono: 2.8%
  Neu: 14.6%
  PT: 16 s
  Plat: 106.2 x10_4/uL
  RBC: 639.4 x10_4/ul
  Ret: 7.5%
  WBC: 110.4 x10_2/uL
  KIDNEY_L: 1 g
  KIDNEY_R: 1 g
  KIDNEY_TOTAL: 2.1 g
  LIVER: 11.3 g
  A/G: 1.3
  ALP: 1563.2 IU/L
  ALT: 46.2 IU/L
  AST: 72.2 IU/L
  BUN: 15.4 mg/dL
  CRE: 0.1 mg/dL
  Ca: 10.8 mg/dL
  Cl: 106.2 meq/L
  DBIL: 0 mg/dL
  GLC: 198.2 mg/dL
  IP: 7.9 mg/dL
  K: 4.4 meq/L
  LDH: 179.4 IU/L
  Na: 143 meq/L
  PL: 142.6 mg/dL
  RALB: 3 g/dL
  TBIL: 0.01 mg/dL
  TC: 77 mg/dL
  TG: 87.8 mg/dL
  TP: 5.3 g/dL
  gamma-GTP: 1.8 IU/L
